In patent US20180193361A1, “GUT ANTI-INFLAMMATORY AGENTS FOR REGULATION OF HIGH BLOOD GLUCOSE LEVELS” (UNIVERSITY HEALTH NETWORK, priority 2015, published 2018):

What was measured:
[1] = test system: colon and small bowel lamina propria T cells; experiment: Flow cytometry of colon and small bowel lamina propria T cells, HFD or HFD 5-ASA; format: in vivo, mice; conditions: HFD vs HFD 5-ASA 1500 mg/kg/day, 16 weeks
Excerpt: Isolation of bowel immune cells. For isolation of small intestine lamina propria immune cells, we used the protocol described by Fritz et al (Fritz et al., 2012), and processed approximately 10 cm from the distal end of the small intestine (jejunum and ileum). For the isolation of colonic lamina propria immune cells, we used the protocol described by Geddes et al (Geddes et al., 2011). Following lamina propria isolations, we passed immune cells through 70 μm strainers, and used them for flow cytometry.
(§1) We stained single cell suspensions for 30 min on ice with commercial antibodies. Flow cytometry antibodies including CD45.2 (104), CD3 (145-2C11), CD4 (GK1.5), CD8 (53-6.7), CD25 (PC61), γδTcR (GL3), Foxp3 (150D), IL-17 (TC11-18H10.1), IFNγ XMG1.2), α4β7 (DATK32), CCR9 (CW-1.2), CD11b (M1/70), F4/80 (BM8), CD11c (N418), CD206 (C068C2), Gr-1 (RB6-8C5), IL-7Rα (A7R34), B220 (RA3-6B2), Thy1.2 (30-H12), NKp46 (29A1.4), and Sca-1 (D7) were purchased from Biolegend. Intracellular staining was performed using a Foxp3 staining buffer kit (eBioscience). We acquired data on a Fortessa flow cytometer (BD Biosciences) and analyzed it with FlowJo software (Tree Star). We gated ILCs as described (Kirchberger et al., 2013).

[2] = test system: VAT T cells and M1 macrophages; experiment: Flow cytometry of VAT immune cells, HFD or HFD 5-ASA; format: in vivo, mice; conditions: HFD vs HFD 5-ASA 1500 mg/kg/day, 16 weeks
Description: We isolated VAT-associated immune cells as previously described (Winer et al., 2009a).
as §1

gut bacteria = experiment: Gut microbiome sequencing; format: in vivo; conditions: HFD 5-ASA-fed mice
Description: We amplified the V4 hypervariable region of the 16S rRNA gene using a universal forward sequencing primer and a uniquely barcoded reverse sequencing primer to allow for multiplexing (Caporaso et al., 2012). Primers contained an adapter sequence to bind the amplicons to the Illumina flow cell. PCR-based library construction was performed in triplicate 25 μl solutions containing 1×KAP[…] Robust HotStart ReadyMix, 600 nM each of primer, and 1 μl of DNA template. For every PCR reaction sterile dH2O was used as a negative control to ensure no contaminating DNA was present. PCR conditions were 95° C. for 3 min, followed by 18 cycles of 95° C. for 15 s, 58° C. for 15 s, 72° C. for 15 s and were completed at 72° C. for 5 min. All PCR reactions were run on a 1% agarose gel to visualize the amplification and approximate DNA quantity. Individual barcoded samples from the triplicates were pooled by approximately even concentrations to create the final library. The final library was purified using 0.8 volumes of Agencourt AMPure XP beads (Beckman Coulter, Indianapolis, Ind.) according to the manufacturer's protocol and quantified using the Qubit Fluorometer. The final library was prepared according to the MiSeq user guide, diluted to a concentration of 7 pM and combined with a 5% PhiX control. Sequencing was performed using the V2 (150 bp×2) chemistry and sequenced on the Illumina MiSeq (Illumina, San Diego, Calif.).

Beta7null mice = experiment: Metabolic studies, Beta7null mice on HFD 5-ASA; format: in vivo; conditions: HFD vs HFD 5-ASA, 12 weeks
Description: Mice. Mice were fed either NCD (15 kcal % fat) or HFD (Research Diets, 60 kcal % fat, irradiated) starting at 6 weeks of age. All studies were performed under the approval of Animal User Protocols by the Animal Care Committee at the University Health Network. Mice were maintained in a pathogen-free, temperature-controlled environment on a 12-hour light and dark cycle. All mice used in comparative studies were male, age-matched, and litter mates where possible.
We measured body weights, GTTs, ITTs, serum insulin, and fat cell diameter as previously described (Winer et al., 2009a). All GTTs were performed with a 1.5 g/kg glucose i.p. injection unless indicated otherwise.

small bowel T cells = experiment: In vitro IFNγ secretion, anti-CD3/CD28-activated small bowel T cells; format: cell-based; conditions: T cells from HFD-fed WT mice, 72 hour; 5-ASA 0.1 mM; rosiglitazone 0.1, 1 and 10 μM
Description: To measure the effect of IFNγ on tight-junction gene expression, we treated MODE-K cells with recombinant mouse IFNγ (Biolegend). We purified bulk dendritic cells and T cells from murine small bowels and spleens using a negative selection DC or T cell isolation kit (Stem Cell Technologies). We plated T cells at 5×10^5 cells/well with plate-bound anti-CD3/CD28 (1 μg/ml, Biolegend). […] We collected supernatants for cytokine measurements after 72 hour incubation. […] After 24 hours, we washed the cells with PBS and co-cultured them (1×10^4 cells/well) with OVA323-339 peptide and OT-II splenic or small bowel T cells (5×10^4 cells/well) for 48 hours. Supernatants were collected at 48 hours for cytokine measurement. We measured serum cytokines by Luminex Multiplex cytokine assay (Millipore, run by the UHN Microarray Center), and quantified IL-10 and IFN-γ in supernatants of anti-CD3/CD28-stimulated splenocytes or bowel immune cells (Winer et al., 2009b) by ELISA (Biolegend).

endotoxin, anti-LPS IgG = experiment: Endotoxin and anti-LPS IgG measurements; format: in vivo, mice; conditions: HFD vs HFD 5-ASA, 14 weeks
Excerpt: We measured endotoxin levels in the serum and adipose tissue using Pyrogene Recombinant C endotoxin detection fluorescence kit (Lonza Inc.). We measured mouse serum anti-LPS IgG antibody levels with a commercially available kit (Chrondrex Inc.).

**Q.** What does the source list for `Nc1ccc(O)c(C(=O)O)c1` [5-ASA, 5-aminosalicylic acid]?
**A.** IFNγ-secreting CD8+ T cells ([1]; colon and small bowel): reduction; IL-17-secreting γδ T cells ([1]; colon and small bowel): reduction; Th1 cells ([1]; colon and small bowel): reduction; Tregs ([1]; small bowel): significant increase; Tregs in VAT [2]: increasing; percentages of IFNγ-secreting CD8+ T cells in VAT [2]: reducing; percentages of M1 inflammatory macrophages in VAT [2]: reducing; percentages of Th1 cells in VAT [2]: reducing; Clostridiales (gut bacteria): increased; Firmicutes (gut bacteria): increased; abundance of Ruminococcaceae (gut bacteria): increased; bacterial diversity (gut bacteria): increased; IR (Beta7null mice): no major effects; glucose tolerance (Beta7null mice): no major effects; IFNγ production (small bowel T cells): significantly reduced; IgG responses to LPS (serum anti-LPS IgG) (endotoxin, anti-LPS IgG): markedly diminished; VAT endotoxin levels (endotoxin, anti-LPS IgG): trended lower; serum endotoxin (endotoxin, anti-LPS IgG): reduced
